The values below come from PubChem BioAssay (NCI).

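These data come from cells grown in 96-well plates and exposed to compound for 48 hours at five concentrations. TGI marks complete inhibition of growth.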

For the first experiment, the system named is TK-10 renal. The experiment in a line: growth of human tumour cells (NCI), 48 h.
On to `Cc1cc(OCc2nnc3n2N=C(c2cc(F)c(Cl)cc2Cl)/C(=C/c2ccc(Cl)cc2)S3)ccc1Cl`, for which the TGI is > 100 µM.

The test system of a further experiment is K-562 leukemia. Nature of the experiment: growth of human tumour cells (NCI), 48 h.
Consider `COc1ccc(CN(Cc2ccc(OC)cc2)C(=O)CC2(O)C=CCC2)cc1` (stereo not given), for which the TGI was > 100 µM.
Same read-out and setting: the figure for `COc1ccc(OC)c(C2Cc3cnc4nc(N)nc(N)c4c3C2)c1` (stereo not given) is > 100 µM.
The same measure, in the same setting: the figure for `CC(C)(C)c1cc(C(=O)/C=C/C=C/c2ccccc2)cc(C(C)(C)C)c1O` is > 100 µM; for `N#C/C(N)=C(\C#N)NC=NCc1ccccc1` it is > 100 µM.
For `O=[N+]([O-])c1ccc(S(=O)(=O)N=Ic2ccccc2)cc1`, the TGI is > 100 µM.
`O=C(O)CCN(CCC(=O)O)c1ccc(/C=C2\SC(=S)NC2=O)cc1`: the TGI was > 100 µM.
`O=C1C[C@H]2[C@@H](O1)[C@@H](O)CN1C(=O)c3ccccc3[C@H]21`: the TGI was > 100 µM.
The same measure, in the same setting: the figure for `CCO/C=N/NC(=O)CSc1nc2ccc(I)cc2c(=O)n1Cc1ccccc1` is > 100 µM.
Same read-out and setting: the figure for `COc1ccc(OC)c(N2C(=O)CSC2c2cc(OC)c(OC)c(OC)c2)c1` (stereo not given) is > 100 µM; for `CCOC(=O)c1ccc(C(=O)/C(C#N)=C2\CCCN2C)[nH]1` it is > 100 µM; for `S=c1[nH]n2c(COc3cccc(OCc4nnc5sc(=S)[nH]n45)c3)nnc2s1` it is > 100 µM.
The same measure, in the same setting: the value for `CCOC(=O)C1=C(N)Oc2ccc(Br)cc2C1C(C#N)C(=O)OCC` (stereo not given) was > 100 µM.
For `O=C(CCc1cc(O)cc(O)c1)NCCc1cc(O)cc(O)c1`, the TGI is > 100 µM.
Consider `Cc1cc(OCc2nnc3n2N=C(c2cc(F)c(Cl)cc2Cl)/C(=C/c2ccc(Cl)cc2)S3)ccc1Cl`, for which the TGI was 56.2 µM.

The next experiment concerns NCI-H460 lung. Nature of the experiment: growth of human tumour cells (NCI), 48 h.
With `COc1ccc(CN(Cc2ccc(OC)cc2)C(=O)CC2(O)C=CCC2)cc1` (stereo not given), the TGI was > 100 µM.
`COc1ccc(OC)c(C2Cc3cnc4nc(N)nc(N)c4c3C2)c1` (stereo not given) returned a TGI of 73.6 µM.
Regarding `CC(C)(C)c1cc(C(=O)/C=C/C=C/c2ccccc2)cc(C(C)(C)C)c1O`, the TGI was determined as 31.5 µM.
Consider `N#C/C(N)=C(\C#N)NC=NCc1ccccc1`, for which the TGI is > 100 µM.
Still for that read-out and setting: the value for `O=[N+]([O-])c1ccc(S(=O)(=O)N=Ic2ccccc2)cc1` was > 100 µM.
As for `O=C(O)CCN(CCC(=O)O)c1ccc(/C=C2\SC(=S)NC2=O)cc1`, the TGI was > 100 µM.
Regarding `O=C1C[C@H]2[C@@H](O1)[C@@H](O)CN1C(=O)c3ccccc3[C@H]21`, the TGI is > 100 µM.
As for `CCO/C=N/NC(=O)CSc1nc2ccc(I)cc2c(=O)n1Cc1ccccc1`, the TGI was > 100 µM.
On the same count and under the same terms, the figure for `COc1ccc(OC)c(N2C(=O)CSC2c2cc(OC)c(OC)c(OC)c2)c1` (stereo not given) is > 100 µM; for `CCOC(=O)c1ccc(C(=O)/C(C#N)=C2\CCCN2C)[nH]1` it is > 100 µM; for `S=c1[nH]n2c(COc3cccc(OCc4nnc5sc(=S)[nH]n45)c3)nnc2s1` it is > 100 µM.
With `CCOC(=O)C1=C(N)Oc2ccc(Br)cc2C1C(C#N)C(=O)OCC` (stereo not given), the TGI was > 100 µM.
Same read-out and setting: the value for `O=C(CCc1cc(O)cc(O)c1)NCCc1cc(O)cc(O)c1` was > 100 µM.
`Cc1cc(OCc2nnc3n2N=C(c2cc(F)c(Cl)cc2Cl)/C(=C/c2ccc(Cl)cc2)S3)ccc1Cl`: the TGI was > 100 µM.

The test system of the next experiment is NCI-H522 lung. Nature of the experiment: growth of human tumour cells (NCI), 48 h.
`COc1ccc(CN(Cc2ccc(OC)cc2)C(=O)CC2(O)C=CCC2)cc1` (stereo not given): the TGI was > 100 µM.
The compound `COc1ccc(OC)c(C2Cc3cnc4nc(N)nc(N)c4c3C2)c1` (stereo not given) came in with a TGI of 64.3 µM.
For `CC(C)(C)c1cc(C(=O)/C=C/C=C/c2ccccc2)cc(C(C)(C)C)c1O`, the TGI turned out to be 52.5 µM.
Still for that read-out and setting: the value for `N#C/C(N)=C(\C#N)NC=NCc1ccccc1` was > 100 µM; that for `O=[N+]([O-])c1ccc(S(=O)(=O)N=Ic2ccccc2)cc1` was > 100 µM; that for `O=C(O)CCN(CCC(=O)O)c1ccc(/C=C2\SC(=S)NC2=O)cc1` was > 100 µM.
For `O=C1C[C@H]2[C@@H](O1)[C@@H](O)CN1C(=O)c3ccccc3[C@H]21`, the TGI was > 100 µM.
`CCO/C=N/NC(=O)CSc1nc2ccc(I)cc2c(=O)n1Cc1ccccc1` gave a TGI of 13.3 µM.
Regarding `COc1ccc(OC)c(N2C(=O)CSC2c2cc(OC)c(OC)c(OC)c2)c1` (stereo not given), the TGI was > 100 µM.
Same read-out and setting: the figure for `CCOC(=O)c1ccc(C(=O)/C(C#N)=C2\CCCN2C)[nH]1` is > 100 µM.
Still for that read-out and setting: the value for `S=c1[nH]n2c(COc3cccc(OCc4nnc5sc(=S)[nH]n45)c3)nnc2s1` was > 100 µM; that for `CCOC(=O)C1=C(N)Oc2ccc(Br)cc2C1C(C#N)C(=O)OCC` (stereo not given) was 34.6 µM; that for `O=C(CCc1cc(O)cc(O)c1)NCCc1cc(O)cc(O)c1` was > 100 µM.
The same measure, in the same setting: the figure for `Cc1cc(OCc2nnc3n2N=C(c2cc(F)c(Cl)cc2Cl)/C(=C/c2ccc(Cl)cc2)S3)ccc1Cl` is 36.4 µM.

The next experiment concerns NCI/ADR-RES ovarian. Nature of the experiment: growth of human tumour cells (NCI), 48 h.
Consider `COc1ccc(CN(Cc2ccc(OC)cc2)C(=O)CC2(O)C=CCC2)cc1` (stereo not given), for which the TGI is > 100 µM.
As for `COc1ccc(OC)c(C2Cc3cnc4nc(N)nc(N)c4c3C2)c1` (stereo not given), the TGI is > 100 µM.
The compound `CC(C)(C)c1cc(C(=O)/C=C/C=C/c2ccccc2)cc(C(C)(C)C)c1O` returned a TGI of 30.5 µM.
On the same count and under the same terms, the figure for `N#C/C(N)=C(\C#N)NC=NCc1ccccc1` is > 100 µM.
The same measure, in the same setting: the figure for `O=[N+]([O-])c1ccc(S(=O)(=O)N=Ic2ccccc2)cc1` is > 100 µM; for `O=C(O)CCN(CCC(=O)O)c1ccc(/C=C2\SC(=S)NC2=O)cc1` it is > 100 µM; for `O=C1C[C@H]2[C@@H](O1)[C@@H](O)CN1C(=O)c3ccccc3[C@H]21` it is > 100 µM.
Regarding `CCO/C=N/NC(=O)CSc1nc2ccc(I)cc2c(=O)n1Cc1ccccc1`, the TGI was > 100 µM.
Turning to `COc1ccc(OC)c(N2C(=O)CSC2c2cc(OC)c(OC)c(OC)c2)c1` (stereo not given), the TGI was > 100 µM.
Same read-out and setting: the value for `CCOC(=O)c1ccc(C(=O)/C(C#N)=C2\CCCN2C)[nH]1` was > 100 µM; that for `S=c1[nH]n2c(COc3cccc(OCc4nnc5sc(=S)[nH]n45)c3)nnc2s1` was > 100 µM; that for `CCOC(=O)C1=C(N)Oc2ccc(Br)cc2C1C(C#N)C(=O)OCC` (stereo not given) was 41 µM.
Still for that read-out and setting: the figure for `O=C(CCc1cc(O)cc(O)c1)NCCc1cc(O)cc(O)c1` is > 100 µM; for `Cc1cc(OCc2nnc3n2N=C(c2cc(F)c(Cl)cc2Cl)/C(=C/c2ccc(Cl)cc2)S3)ccc1Cl` it is > 100 µM.

The next experiment has as its system COLO 205 colon. Nature of the experiment: growth of human tumour cells (NCI), 48 h.
For the compound `COc1ccc(CN(Cc2ccc(OC)cc2)C(=O)CC2(O)C=CCC2)cc1` (stereo not given), the TGI was > 100 µM.
Take `COc1ccc(OC)c(C2Cc3cnc4nc(N)nc(N)c4c3C2)c1` (stereo not given): the TGI was 49 µM.
Consider `CC(C)(C)c1cc(C(=O)/C=C/C=C/c2ccccc2)cc(C(C)(C)C)c1O`, for which the TGI came to 34.9 µM.
Still for that read-out and setting: the figure for `N#C/C(N)=C(\C#N)NC=NCc1ccccc1` is > 100 µM; for `O=[N+]([O-])c1ccc(S(=O)(=O)N=Ic2ccccc2)cc1` it is > 100 µM.
Still for that read-out and setting: the figure for `O=C(O)CCN(CCC(=O)O)c1ccc(/C=C2\SC(=S)NC2=O)cc1` is > 100 µM; for `O=C1C[C@H]2[C@@H](O1)[C@@H](O)CN1C(=O)c3ccccc3[C@H]21` it is > 100 µM; for `CCO/C=N/NC(=O)CSc1nc2ccc(I)cc2c(=O)n1Cc1ccccc1` it is > 100 µM.
Take `COc1ccc(OC)c(N2C(=O)CSC2c2cc(OC)c(OC)c(OC)c2)c1` (stereo not given): the TGI was > 100 µM.
Regarding `CCOC(=O)c1ccc(C(=O)/C(C#N)=C2\CCCN2C)[nH]1`, the TGI is > 100 µM.
The same measure, in the same setting: the value for `S=c1[nH]n2c(COc3cccc(OCc4nnc5sc(=S)[nH]n45)c3)nnc2s1` was > 100 µM; that for `CCOC(=O)C1=C(N)Oc2ccc(Br)cc2C1C(C#N)C(=O)OCC` (stereo not given) was 42.3 µM.
Regarding `O=C(CCc1cc(O)cc(O)c1)NCCc1cc(O)cc(O)c1`, the TGI is > 100 µM.
